Reference: the NIST ThermoML archive (doi:10.1016/j.tca.2011.12.010)
Several values for one entry are separate records, joined by “and”; a condition that tells them apart may be missing. Equal entries are not always repeated.

Assay: molar heat capacity at constant pressure
Conditions: 101.33 kPa, Small sample (50 mg) DSC

O=[N+]([O-])[O-].O=[N+]([O-])[O-].O=[N+]([O-])[O-].O=[N+]([O-])[O-].[K+].[K+].[Mg+2] [bis-potassium magnesium nitrate]
Conditions	molar heat capacity at constant pressure
461 K, Crystal 1	606.9 J/K/mol
462 K, Crystal 1	680.8 J/K/mol
463 K, Crystal 1	806.8 J/K/mol
464 K, Crystal 1	1030.1 J/K/mol
465 K, Crystal 1	1503.6 J/K/mol
466 K, Crystal 1	2552.2 J/K/mol
467 K, Crystal 1	4003 J/K/mol
469 K, Liquid	2955.4 J/K/mol
470 K, Liquid	2419.9 J/K/mol
471 K, Liquid	1683.9 J/K/mol
472 K, Liquid	1106.4 J/K/mol
473 K, Liquid	770 J/K/mol
474 K, Liquid	542.5 J/K/mol
475 K, Liquid	510 J/K/mol
476 K, Liquid	480.6 J/K/mol
477 K, Liquid	469 J/K/mol
478 K, Liquid	455.6 J/K/mol
478.15 K, Liquid	463.8 J/K/mol
479 K, Liquid	462.4 J/K/mol
480 K, Liquid	462.4 J/K/mol
481 K, Liquid	462.4 J/K/mol
482 K, Liquid	462.6 J/K/mol
483 K, Liquid	462.8 J/K/mol
484 K, Liquid	463 J/K/mol
485 K, Liquid	459.2 J/K/mol and 463.2 J/K/mol
486 K, Liquid	463.3 J/K/mol
487 K, Liquid	463.4 J/K/mol
488 K, Liquid	463.6 J/K/mol
489 K, Liquid	463.8 J/K/mol
490 K, Liquid	463.9 J/K/mol
491 K, Liquid	464.1 J/K/mol
492 K, Liquid	464.6 J/K/mol
493 K, Liquid	464.6 J/K/mol
494 K, Liquid	464.9 J/K/mol
495 K, Liquid	465.2 J/K/mol
496 K, Liquid	465.5 J/K/mol
497 K, Liquid	465.6 J/K/mol
498 K, Liquid	465.8 J/K/mol
499 K, Liquid	466 J/K/mol
500 K, Liquid	466.2 J/K/mol
501 K, Liquid	466.4 J/K/mol
502 K, Liquid	466.6 J/K/mol
503 K, Liquid	466.1 J/K/mol
504 K, Liquid	467 J/K/mol
505 K, Liquid	467.2 J/K/mol
506 K, Liquid	467.4 J/K/mol
507 K, Liquid	467 J/K/mol
508 K, Liquid	467.8 J/K/mol
509 K, Liquid	466.6 J/K/mol
510 K, Liquid	469 J/K/mol and 466.2 J/K/mol
511 K, Liquid	466.2 J/K/mol
512 K, Liquid	464.1 J/K/mol
513 K, Liquid	465.5 J/K/mol
514 K, Liquid	464.5 J/K/mol
515 K, Liquid	471.8 J/K/mol
516 K, Liquid	470.4 J/K/mol
517 K, Liquid	466.9 J/K/mol
518 K, Liquid	471.1 J/K/mol
519 K, Liquid	476.4 J/K/mol
520 K, Liquid	475.7 J/K/mol and 471.8 J/K/mol
521 K, Liquid	475.7 J/K/mol
522 K, Liquid	480.9 J/K/mol
523 K, Liquid	478.1 J/K/mol
524 K, Liquid	478.6 J/K/mol
525 K, Liquid	479.1 J/K/mol
526 K, Liquid	478.1 J/K/mol
527 K, Liquid	478.7 J/K/mol
528 K, Liquid	478.8 J/K/mol
529 K, Liquid	485.8 J/K/mol
530 K, Liquid	480.6 J/K/mol
531 K, Liquid	474.6 J/K/mol
532 K, Liquid	475.7 J/K/mol
533 K, Liquid	476 J/K/mol
534 K, Liquid	477.4 J/K/mol
535 K, Liquid	483.4 J/K/mol and 478.8 J/K/mol
536 K, Liquid	480.6 J/K/mol
537 K, Liquid	481.3 J/K/mol
538 K, Liquid	483.4 J/K/mol
539 K, Liquid	484.4 J/K/mol
540 K, Liquid	486.5 J/K/mol
541 K, Liquid	486.9 J/K/mol
542 K, Liquid	487.6 J/K/mol
543 K, Liquid	489 J/K/mol
544 K, Liquid	490.7 J/K/mol
545 K, Liquid	491.8 J/K/mol
546 K, Liquid	493.5 J/K/mol
547 K, Liquid	494.9 J/K/mol
548 K, Liquid	495.6 J/K/mol
549 K, Liquid	496.7 J/K/mol
550 K, Liquid	498.4 J/K/mol
551 K, Liquid	499.5 J/K/mol
552 K, Liquid	500.9 J/K/mol
553 K, Liquid	502.3 J/K/mol
554 K, Liquid	503 J/K/mol
555 K, Liquid	504.4 J/K/mol
556 K, Liquid	505.8 J/K/mol
557 K, Liquid	506.5 J/K/mol
558 K, Liquid	508.2 J/K/mol
559 K, Liquid	508.9 J/K/mol
560 K, Liquid	510.3 J/K/mol
561 K, Liquid	511.4 J/K/mol
562 K, Liquid	512.4 J/K/mol
563 K, Liquid	513.1 J/K/mol
564 K, Liquid	514.2 J/K/mol
565 K, Liquid	515.2 J/K/mol
566 K, Liquid	517 J/K/mol
567 K, Liquid	518 J/K/mol
568 K, Liquid	518.4 J/K/mol
569 K, Liquid	518.4 J/K/mol
570 K, Liquid	519.1 J/K/mol
571 K, Liquid	519.4 J/K/mol
572 K, Liquid	518.4 J/K/mol
573 K, Liquid	519.1 J/K/mol
574 K, Liquid	519.1 J/K/mol
575 K, Liquid	521.4 J/K/mol and 519.4 J/K/mol
576 K, Liquid	519.8 J/K/mol
577 K, Liquid	518.7 J/K/mol
578 K, Liquid	511.7 J/K/mol
579 K, Liquid	512.8 J/K/mol
580 K, Liquid	514.2 J/K/mol and 525.2 J/K/mol
581 K, Liquid	515.9 J/K/mol
582 K, Liquid	517.3 J/K/mol
583 K, Liquid	518.7 J/K/mol
584 K, Liquid	520.5 J/K/mol
585 K, Liquid	521.9 J/K/mol and 529.9 J/K/mol
586 K, Liquid	524 J/K/mol
587 K, Liquid	525.4 J/K/mol
588 K, Liquid	526.8 J/K/mol
589 K, Liquid	528.2 J/K/mol
590 K, Liquid	529.9 J/K/mol and 531.4 J/K/mol
591 K, Liquid	525.4 J/K/mol
592 K, Liquid	525.4 J/K/mol
593 K, Liquid	526.1 J/K/mol
594 K, Liquid	526.4 J/K/mol
595 K, Liquid	525.4 J/K/mol and 534.2 J/K/mol
596 K, Liquid	526.1 J/K/mol
597 K, Liquid	526.1 J/K/mol
598 K, Liquid	527.1 J/K/mol
599 K, Liquid	525.7 J/K/mol
600 K, Liquid	525 J/K/mol and 537.1 J/K/mol
601 K, Liquid	526.4 J/K/mol
602 K, Liquid	521.9 J/K/mol
603 K, Liquid	521.9 J/K/mol
604 K, Liquid	519.8 J/K/mol
605 K, Liquid	522.6 J/K/mol and 539.5 J/K/mol
606 K, Liquid	524.7 J/K/mol
607 K, Liquid	524.7 J/K/mol
608 K, Liquid	520.8 J/K/mol
609 K, Liquid	521.9 J/K/mol
610 K, Liquid	526.8 J/K/mol and 541 J/K/mol
611 K, Liquid	532 J/K/mol
612 K, Liquid	525 J/K/mol
613 K, Liquid	529.2 J/K/mol
614 K, Liquid	536.6 J/K/mol
615 K, Liquid	532 J/K/mol and 545.6 J/K/mol
616 K, Liquid	533.8 J/K/mol
617 K, Liquid	541.5 J/K/mol
618 K, Liquid	537.6 J/K/mol
619 K, Liquid	543.2 J/K/mol
620 K, Liquid	538.7 J/K/mol and 547.7 J/K/mol
621 K, Liquid	542.2 J/K/mol
622 K, Liquid	543.6 J/K/mol
623 K, Liquid	544.3 J/K/mol
623.15 K, Liquid	543.9 J/K/mol and 552.9 J/K/mol
